According to the supplement of paper PMC4862054:

Key:
MDA-MB-468 [1] = details: 72 h
In short: (§1)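 Two sequential readouts followed a 72 h incubation of breast cancer cell lines with compound at 5 concentrations in 10-fold steps over a compound-specific 10,000-fold range: CellTox Green fluorescence (485/520 nm) for cell death, then CellTiter-Glo luminescence, after 10 min at room temperature, for viability. Each plate was normalised to 0.1 % DMSO and a positive kill control. Dose-response curves were fitted for EC50, censored at the top concentration.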

CAL-120 [2] = details: 72 h
In short: as §1

Hs578T = assay: drug sensitivity score (DSS), CellTiter-Glo (DSS (AUC-based score)); higher = stronger drug effect (viability inhibition or cytotoxicity); extreme values may be limits of the assay; details: incubation time: 72 h
In short: (§2)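 Plates with 384 wells held compound at 5 concentrations in 10-fold steps over a 10,000-fold range specific to each compound. Breast cancer cell lines were added in 20 µl suspension and incubated 72 h, then read for CellTox Green and CellTiter-Glo signals, with each plate normalised to 0.1 % DMSO and a positive kill control. The drug sensitivity score is based on the area under the fitted dose-response curve.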

HCC1937 = assay: as above; details: incubation time: 72 h
In short: as §2

SK-BR-3 = assay: as above; details: incubation time: 72 h
In short: as §2

CAL-148 = assay: as above; details: incubation time: 72 h
In short: as §2

BT-474 = assay: as above; details: incubation time: 72 h
In short: as §2

DU-4475 = assay: as above; details: incubation time: 72 h
In short: as §2

MDA-MB-468 [3] = assay: as above; details: incubation time: 72 h
In short: as §2

BT-549 = assay: as above; details: incubation time: 72 h
In short: as §2

HDQ-P1 = assay: as above; details: incubation time: 72 h
In short: as §2

HCC1143 = assay: as above; details: incubation time: 72 h
In short: as §2

CAL-51 = assay: as above; details: incubation time: 72 h
In short: as §2

MDA-MB-231 = assay: as above; details: incubation time: 72 h
In short: as §2

MFM-223 = assay: as above; details: incubation time: 72 h
In short: as §2

MDA-MB-436 = assay: as above; details: incubation time: 72 h
In short: as §2

CAL-120 [4] = assay: as above; details: incubation time: 72 h
In short: as §2

HCC1599 = assay: as above; details: incubation time: 72 h
In short: as §2

MCF-10A = assay: as above; details: incubation time: 72 h
In short: as §2

MDA-MB-453 = assay: as above; details: incubation time: 72 h
In short: as §2

CAL-85-1 = assay: as above; details: incubation time: 72 h
In short: as §2

SMILES | EC50, CellTiter-Glo (MDA-MB-468 [1]) | EC50, CellTiter-Glo (CAL-120 [2]) | drug sensitivity score (Hs578T) | drug sensitivity score (HCC1937) | drug sensitivity score (SK-BR-3) | drug sensitivity score (CAL-148) | drug sensitivity score (BT-474) | drug sensitivity score (DU-4475) | drug sensitivity score (MDA-MB-468 [3]) | drug sensitivity score (BT-549) | drug sensitivity score (HDQ-P1) | drug sensitivity score (HCC1143) | drug sensitivity score (CAL-51) | drug sensitivity score (MDA-MB-231) | drug sensitivity score (MFM-223) | drug sensitivity score (MDA-MB-436) | drug sensitivity score (CAL-120 [4]) | drug sensitivity score (HCC1599) | drug sensitivity score (MCF-10A) | drug sensitivity score (MDA-MB-453) | drug sensitivity score (CAL-85-1)
COc1cccc2c1C(=O)c1c(O)c3c(c(O)c1C2=O)C[C@@](O)(C(=O)CO)C[C@@H]3O[C@H]1C[C@H](N)[C@H](O)[C@H](C)O1 [Doxorubicin] | 0.139 µM | 0.872 µM | 2.18 | 0 | 6.19 | 8.35 | 7.08 | 8.65 | 9.32 | 8.09 | 2.13 | 1.04 | 12.4 | 4.21 | 0 | 4.44 | 1.5 | 1.68 | 1.13 | 2.56 | 2.97
C=CCNC1=C2C[C@@H](C)C[C@H](OC)[C@H](O)[C@@H](C)/C=C(\C)[C@H](OC(N)=O)[C@@H](OC)/C=C\C=C(/C)C(=O)NC(=CC1=O)C2=O [Tanespimycin] | 0.532 µM | 0.269 µM | 15.6 | 16.5 | 18.3 | 16.3 | 14.5 | 20.2 | 11.3 | 18.5 | 19 | 18 | 20.7 | 14.5 | 16.8 | 18.2 | 10.5 | 8.46 | 21.6 | 23.7 | 13.3
CO[C@H]1C[C@@H]2CC[C@@H](C)[C@@](O)(O2)C(=O)C(=O)N2CCCC[C@H]2C(=O)O[C@H]([C@H](C)C[C@@H]2CC[C@@H](OC(=O)C(C)(CO)CO)[C@H](OC)C2)CC(=O)[C@H](C)/C=C(\C)[C@@H](O)[C@@H](OC)C(=O)[C@H](C)C[C@H](C)/C=C/C=C/C=C/1C [Temsirolimus] | 0.00015 µM | 0.00108 µM | 10.1 | 6.15 | 11 | 8.93 | 2.49 | 5.2 | 14.7 | 12.7 | 4.08 | 8.92 | 11.3 | 0 | 7.59 | 3.51 | 7.34 | 0 | 0 | 9.78 | 9.28
CC[C@]1(O)C[C@@H]2CN(CCc3c([nH]c4ccccc34)[C@@](C(=O)OC)(c3cc4c(cc3OC)N(C)[C@H]3[C@@](O)(C(=O)OC)[C@H](OC(C)=O)[C@]5(CC)C=CCN6CC[C@]43[C@@H]65)C2)C1 [Vinblastine] | 0.00295 µM | 0.00204 µM | 20.3 | 9.45 | 27.5 | 13 | 14.3 | 8.05 | 21.1 | 21.3 | 7.5 | 15.8 | 18.4 | 16.2 | 13 | 22.8 | 14.2 | 17.2 | 10.9 | 13.1 | 20.7

Now from value to compound, other results behind:

EC50, CellTiter-Glo (MDA-MB-468 [1]) | SMILES | EC50, CellTiter-Glo (CAL-120 [2]) | drug sensitivity score (Hs578T) | drug sensitivity score (HCC1937) | drug sensitivity score (SK-BR-3) | drug sensitivity score (CAL-148) | drug sensitivity score (BT-474) | drug sensitivity score (DU-4475) | drug sensitivity score (MDA-MB-468 [3]) | drug sensitivity score (BT-549) | drug sensitivity score (HDQ-P1) | drug sensitivity score (HCC1143) | drug sensitivity score (CAL-51) | drug sensitivity score (MDA-MB-231) | drug sensitivity score (MFM-223) | drug sensitivity score (MDA-MB-436) | drug sensitivity score (CAL-120 [4]) | drug sensitivity score (HCC1599) | drug sensitivity score (MCF-10A) | drug sensitivity score (MDA-MB-453) | drug sensitivity score (CAL-85-1)
4.99 µM | COc1cccc2cc(-c3nc([C@H]4CC[C@H](C(=O)O)CC4)n4ncnc(N)c34)[nH]c12 [OSI-027] | 3.85 µM | 2.44 | 3.56 | 13.4 | 2.6 | 4.09 | 2.39 | 4.37 | 6.24 | 7.43 | 2.97 | 4.69 | 3.06 | 6.51 | 4.39 | 5.45 | 0 | 4.28 | 8 | 5.52
> 10 µM | N#CC[C@H](C1CCCC1)n1cc(-c2ncnc3[nH]ccc23)cn1 [Ruxolitinib] | 1.67 µM | 0 | 0 | 0 | 0 | 0.693 | 0 | 0.173 | 0 | 0 | 0 | 0 | 0 | 1.49 | 0 | 1.35 | 0 | 0 | 0 | 0
